From US12012404B2, “Pyrimidoheterocyclic compounds and application thereof” (D3 BIO (WUXI) CO., LTD., priority 2020, dated 2024)
Read-outs that look alike come from different tables or passages of the source. Blank lines part the entries; values can stand above or below the molecule they belong to.

Assays:
[1] = In vitro stability in liver microsomes, human; format: in vitro ADME; details: 0.5 mg/mL
Protocol: (§1) Purpose of the assay: Metabolic stabilities of the assay compounds in liver microsomes of CD-1 mice, SD rats, beagle dogs, cynomolgus monkeys, and human were assayed, respectively.
(§2) Procedure of the assay: Two 96-well incubation plates were prepared and named T60 incubation plate and NCF60 incubation plate, respectively. 445 μL of microsomal working solutions (liver microsomal protein concentration of 0.56 mg/mL) were added to the T60 incubation plate and the NCF60 incubation plate, respectively, and then the above incubation plates were pre-incubated in a 37° C. water bath for about 10 minutes.
(§3) After the pre-incubation, 5 μL of working solutions of the assay sample or the control compound were added to the T60 incubation plate and the NCF60 incubation plate, respectively, and the mixture was mixed well. 50 μL of potassium phosphate buffer was added to each well of the NCF60 incubation plate to initiate the reaction. 180 μL of stop solution (200 ng/mL tolbutamide and 200 ng/mL labetalol in acetonitrile) and 6 uL of NADPH regeneration system working solution were added to the T0 stop plate, and 54 μL of sample was transferred from T60 incubation plate to T0 stop plate (generation of TO sample). The reaction was initiated by adding 44 μL of NADPH regeneration system working solution to each well of the T60 incubation plate. Only 54 μL of microsome working solution, 6 uL of NADPH regeneration system working solution and 180 μL of stop solution were added to the Blank plate. Therefore, in samples of the assay compound or the control compound, the final reaction concentration of compound, testosterone, diclofenac and propafenone was 1 μM, the concentration of liver microsomes was 0.5 mg/mL, and the final reaction concentrations of DMSO and acetonitrile in the reaction system were 0.01% (v/v) and 0.99% (v/v), respectively.
(§4) After an appropriate time (e.g., 5, 15, 30, 45 and 60 minutes) of incubation, 180 μL of stop solutions (200 ng/mL tolbutamide and 200 ng/mL labetalol in acetonitrile) were added to the sample wells of each stop plate, respectively. 60 μL of sample was removed from the T60 incubation plate to stop the reaction. All sample plates were shaken well and then centrifuged at 3220×g for 20 minutes. Then 80 μL of supernatant was taken out from each well, and diluted in 240 μL of pure water for liquid chromatography-tandem mass spectrometry analysis. All samples were injected and analyzed by liquid chromatography-tandem mass spectrometry.

[2] = In vitro stability in liver microsomes, cynomolgus monkeys; format: in vitro ADME; details: 0.5 mg/mL
Protocol: as §1, §2, §3, §4

[3] = In vitro stability in liver microsomes, CD-1 mice; format: in vitro ADME; details: CD-1 mice liver microsomes, 0.5 mg/mL
Protocol: as §1, §2, §3, §4

[4] = Pharmacokinetics by oral administration and intravenous injection in CD mice; format: in vivo; details: for AUCu: AUC0-last × PPB(Unbound %); for Peak concentration, Cmax, u: Cmax × PPB(Unbound %); for Cmax: read-out: Peak concentration, Cmax; for Vd: CD, iv, 2.39 mg/kg
Protocol: 2) Assay on the Pharmacokinetics of the Assay Compounds by Oral Administration and Intravenous Injection in CD Mice
The assay compound was mixed with 5% dimethyl sulfoxide/95% (10% hydroxypropyl-β-cyclodextrin) solution. The mixture was vortexed and sonicated to prepare a 1 mg/mL clear solution, which was filtered through a microporous membrane for later use. Male CD mice aged 7 to 10 weeks were selected, and administered candidate compound solutions intravenously or orally. Whole blood was collected for a certain period of time, and prepared to obtain plasma. Drug concentration was analyzed by LC-MS/MS method, and pharmacokinetic parameters were calculated by Phoenix WinNonlin software (Pharsight, USA).

[5] = Metabolic stability in hepatocytes, SD rats; format: in vitro ADME
Protocol: (§5) Purpose of the assay: Metabolic stabilities of assay compounds in hepatocytes of CD-1 mice, SD rats, beagle dogs, cynomolgus monkeys, and human were assayed, respectively.
(§6) Procedure of the assay: Several 96-well sample precipitation plates were prepared and named T0, T15, T30, T60, T90, T120, TO-MC, T120-MC and blank substrates, respectively. The recovery medium and incubation medium were taken out in advance and placed in a 37° C. water bath for pre-heating. Cryopreserved hepatocytes were removed from the liquid nitrogen tank and immediately immersed in a 37° C. water bath (approximately 90 seconds). After the cryopreserved hepatocytes had thawed and loosened, they were poured into a centrifuge tube containing 40 mL of recovery medium, and the tube was gently inverted to allow the cells to be resuspended in the recovery medium. The cells were centrifuged at 100×g at room temperature for 5 min, and the supernatant was removed. The hepatocytes were resuspended in an appropriate volume of incubation medium, and the cell viability was calculated by Trypan Blue staining method. 198 μL of hepatocyte suspension (0.51×10^6 cells/mL) was added to the preheated incubation plate. For the culture medium control group, 198 μL of hepatocyte-free incubation medium was added to T0-MC and T120-MC incubation plate. All incubation plates were pre-incubated in a 37° C. incubator for 10 minutes. Then 2 μL of working solutions of the assay sample and the control compound were added, respectively, and the mixture was mixed well. The incubation plate was immediately put into the shaker in the incubator, and the reaction was initiated while starting the timer. For each time point of each compound, 2 duplicate samples were prepared. The incubation conditions were 37° C., saturated humidity, and 5% CO2. In the assay system, the final concentration of the assay sample was 1 μM, the final concentration of the control sample was 3 μM, the final concentration of hepatocytes was 0.5×10^6 cells/mL, and the final concentration of the total organic solvent was 0.96%, of which the final concentration of DMSO was 0.1%. At the end of the incubation for the corresponding time point, the incubation plate was taken out, and 25 μL of a mixture of compound and control compound with cells was added to the sample plate containing 125 μL of stop solution (200 ng/mL tolbutamide and labetalol in acetonitrile). For the Blank sample plate, 25 μL of hepatocyte-free incubation medium was added directly. After sealing, all sample plates were shaken on a shaker at 600 rpm for 10 minutes, and then centrifuged at 3220×g for 20 minutes. Supernatants of the assay sample and the control sample were diluted with ultrapure water at a ratio of 1:3. All samples were mixed well and analyzed by LC/MS/MS.

[6] = Metabolic stability in hepatocytes, beagle dogs; format: in vitro ADME
Protocol: as §5, §6

[7] = Metabolic stability in hepatocytes, cynomolgus monkeys; format: in vitro ADME
Protocol: as §5, §6

[8] = intravenous injection, 2.39 mg/kg (17), 2.0 mg/kg (8B)
[9] = oral, 14.7 mg/kg (17), 10.3 mg/kg (8B)
[10] = male, mouse, plasma, oral, 14.7 mg/kg (17), 10.3 mg/kg (8B)

- CLint(liver) ([1]; 1 μM): 1.24 L/h/kg
- CLint(mic) ([1]; 1 μM): 23 µL/min/mg
- T1/2 ([1]; 1 μM): 60.3 min
- CLint(liver) ([2]; 1 μM): 4.82 L/h/kg
- CLint(mic) ([2]; 1 μM): 59.5 µL/min/mg
- T1/2 ([2]; 1 μM): 23.3 min
- CLint(liver) ([3]; 1 μM): 26.17 L/h/kg
- CLint(mic) ([3]; 1 μM): 110 µL/min/mg
- T1/2 ([3]; 1 μM): 12.6 min
- AUC0-last [4, 8]: 1297 nM·h
- Apparent volume of distribution, Vdss [4, 8]: 3.9 L/kg
- Clearance rate, CL [4, 8]: 2.44 L/h/kg
- Half-life period, T1/2 [4, 8]: 102 min
- AUCu [4, 8]: 155.6 nM·h
- Apparent volume of distribution, Vdss, u ([4]; intravenous injection, 2.39 mg/kg (17), 2.0 mg/kg (8B), Vdss/PPB(Unbound %)): 32.3 L/kg
- AUC0-last [4, 9]: 1422 nM·h
- Bioavailability F [4, 9]: 21.9%
- Time-to-peak, Tmax [4, 9]: 60 min
- AUCu [4, 9]: 170.6 nM·h
- Peak concentration, Cmax, u [4, 9]: 0.0517 µM
- Cmax [4, 9]: 0.431 µM
- CLint(hep) ([5]; 1 μM): 7.5 μL/min/10^6
- CLint(liver) ([5]; 1 μM): 2.1 L/h/kg
- T1/2 ([5]; 1 μM): 185.2 min
- CLint(hep) ([6]; 1 μM): <6.4 μL/min/10^6
- CLint(liver) ([6]; 1 μM): <2.64 L/h/kg
- T1/2 ([6]; 1 μM): >216.8 min
- CLint(hep) ([7]; 1 μM): 10.2 μL/min/10^6
- CLint(liver) ([7]; 1 μM): 2.2 L/h/kg
- T1/2 ([7]; 1 μM): 136.1 min
SMILES: C=C(F)C(=O)N1CCN(c2nc(OCC3CCCN3C)nc3c2COC(c2c(F)c(N)cc(C)c2C(F)(F)F)C3)CC1CC#N.Cl (single isomer, unassigned) [Compound 8B hydrochloride]

SMILES: C=C(F)C(=O)N1CCN(c2nc(OC[C@@]34CCCN3C[C@H](F)C4)nc3c2COC(c2c(F)c(N)cc(C)c2C(F)(F)F)C3)C[C@@H]1CC#N (stereo partly drawn) [Compound 17]
- CLint(mic) ([1]; 1 μM): 67.9 µL/min/mg
- CLint scaled at 1 μM [1]: 3.67 L/h/kg
- half-life at 1 μM [1]: 20.4 min
- CLint(mic) ([2]; 1 μM): 225 µL/min/mg
- CLint scaled at 1 μM ([2]; cynomolgus monkey): 18.2 L/h/kg
- half-life at 1 μM ([2]; cynomolgus monkey): 6.2 min
- CLint(mic) ([3]; 1 μM): 285 µL/min/mg
- CLint scaled at 1 μM ([3]; mouse): 67.6 L/h/kg
- half-life at 1 μM ([3]; mouse): 4.9 min
- AUCu [4, 8]: 20.2 nM·h
- Vd ([4]; male, mouse, plasma, intravenous injection, 2.39 mg/kg (17), 2.0 mg/kg (8B), Vdss/PPB(Unbound %), read-out: Apparent volume of distribution, Vdss, u): 169 L/kg
- Vd ([4]; male, mouse, plasma, intravenous injection, 2.39 mg/kg (17), 2.0 mg/kg (8B), read-out: Apparent volume of distribution, Vdss): 2.6 L/kg
- AUC(0-t) ([4]; male, mouse, plasma, intravenous injection, 2.39 mg/kg (17), 2.0 mg/kg (8B)): 1310 nM·h
- clearance ([4]; male, mouse, plasma, intravenous injection, 2.39 mg/kg (17), 2.0 mg/kg (8B), read-out: Clearance rate, CL): 2.24 L/h/kg
- half-life ([4]; male, mouse, plasma, intravenous injection, 2.39 mg/kg (17), 2.0 mg/kg (8B), read-out: Half-life period, T1/2 (converted)): 60 min
- AUC(0-t) [4, 10]: 2400 nM·h
- bioavailability ([4]; male, mouse, plasma, oral, 14.7 mg/kg (17), 10.3 mg/kg (8B), read-out: Bioavailability F): 24.4%
- Cmax [4, 10]: 1.46 µM
- Tmax ([4]; male, mouse, plasma, oral, 14.7 mg/kg (17), 10.3 mg/kg (8B), read-out: Time-to-peak, Tmax): 15 min
- AUCu [4, 9]: 37.0 nM·h
- Peak concentration, Cmax, u [4, 9]: 0.0225 µM
- CLint(hep) ([5]; 1 μM): 67.4 μL/min/10^6
- half-life at 1 μM ([5]; rat, cryopreserved hepatocytes): 20.6 min
- CLint scaled at 1 μM ([5]; rat, cryopreserved hepatocytes, read-out: CLint(liver)): 18.9 L/h/kg
- CLint(hep) ([6]; 1 μM): 7.6 μL/min/10^6
- half-life at 1 μM ([6]; dog, cryopreserved hepatocytes): 182 min
- CLint scaled at 1 μM ([6]; dog, cryopreserved hepatocytes, read-out: CLint(liver)): 3.14 L/h/kg
- CLint(hep) ([7]; 1 μM): 51.3 μL/min/10^6
- half-life at 1 μM ([7]; cynomolgus monkey, cryopreserved hepatocytes): 27 min
- CLint scaled at 1 μM ([7]; cynomolgus monkey, cryopreserved hepatocytes, read-out: CLint(liver)): 11.1 L/h/kg
